# Measurements taken from patent US6235739A, “5-phenyl-3-pyridazinone derivatives and drug composition containing the same” (Nikken Chemicals Co., Ltd., priority 1996, dated 2001).
# Legend:
# Type IV PDE = experiment: Measurement of type IV PDE inhibiting activity; type: biochemical; settings: type IV PDE partially purified from neutrophils; 3H-cAMP substrate; 30 minutes; read-out: Type IV PDE Inhibitory activity IC50
# Description: Type I, III, IV, and V PDE isozymes were prepared to study the PDE inhibiting activities and selectivities of the compound of the invention [Trends Pharmacol Sci., 12, 19-27 (1992)]. Type I PDE was purchased from Sigma Corp. Type III and V PDE isozymes were partially purified from rats platelets, and type IV PDE isozyme was partially purified from neutrophils. Each enzyme source was homogenized in a buffer (pH 6.5) containing 20 mM bisTris, 2 mM EDTA, 0.1 mM PMSF (phenylmethylsulfonyl fluoride), 5 mM 2-mercaptoethanol, 0.01 mM pepstatin, and 0.01 mM leupeptin and was centrifuged at 30,000G for 30 minutes to obtain a supernatant, which was applied to a column (1.5×20 cm) packed with an ion-exchange resin (Q-sepharose First Flow, Pharmacia Corp.) and was eluted with sodium acetate gradient of 0 to 1M. Partially purified isozymes were identified by observing the effects of conventional inhibitor.
# Each PDE isozyme and test compounds dissolved in DMSO (i.e., dimethyl sulfoxide) were added to 50 mM Tris-HCl buffer containing 5 mM magnesium chloride. ^3 H-cAMP (for type III and IV PDE) or ^3 H-cGMP (for type I and V PDE) were added as substrates and were reacted for 30 minutes. The reaction was terminated by placing the test tube in boiling water of 100° C. for 5 minutes. The nucleotides formed by PDE were broken down by 5'-nucleotidase to ^3 H-adenosine or 3H-guanosine. The unreacted substrate and reaction product were separated through a column packed with an ion-exchange resin (QAE sephadex). The eluted ^3 H-nucleoside was measured for its radioactivity by a liquid scintillation counter. The inhibiting activities of the compound of the present invention against types I, III and V are 1/10 or less than that against type IV.
# [1] = system: antigen-induced bronchospasm; experiment: Inhibitory effect on antigen-induced bronchospasm (anti-asthmatic action); type: in vivo; settings: Cavia porcellus, iv; ovalbumin-sensitized Hartley male guinea pig; intravenously 10 minutes before 0.2 mg/kg OA i.v.; Konzett-Roessler method; read-out: Action for suppressing antigen-induced bronchospasms ED50
# Description: A Hartley male guinea pig was sensitized by intramuscular administration of […] Ovalbumin (OA) on first day and fourth day, and used after 24th day. A trachial canula was introduced in the guinea pig anesthetized with pentobarbital and artificial ventilation was performed 25 to 29 days after the first sensitization. The overflow of the ventilation was measured by the Konzett-Roessler method, while 0.2 mg/kg OA were administered intravenously. The test compound was dissolved in polyethylene glycol 400 and intravenously administered 10 minutes before administration of the antigens.
# rat neutrophils = experiment: Inhibitory effects on activity of rat neutrophils (release of super oxide anions); type: cell-based; settings: Neutrophil, stimulation with 0.3 μM calcium ionophore A23187, chemiluminescence, read-out: Action for suppressing release of super oxide anions from rat neutrophils IC50
# Description: The release of super oxide anions was measured so as to study the inhibitory effects of the compound on inflammatory leukocytes, that is, neutrophils.
# Blood sample was obtained from Wister rats anesthetized with ether. It was superposed on a blood cell separation solution (Polymorphoprep 1.113, made by Naicomet Co. (phonetic)) and the neutrophils were separated by centrifugation. The neutrophils were resuspended in a Hank's balanced salt solution at a concentration of 0.5×10^4 cell/ml. 0.1 mM of Lusigenin and the test substance dissolved in DMSO were added to 2 ml of the cell-suspension. The chemiluminescence generated by stimulation of 0.3 μM calcium ionophore A23187 was measured by a chemiluminescence reader so as to evaluate the release of super oxide anions.
SMILES,IC50 (Type IV PDE),ED50 [1],IC50 (rat neutrophils)
"COc1ccc(C2C=NNC(=O)C2)cc1OCCc1ccccc1 (stereo not shown) [Compound No. 8, 5-(4-methoxy-3-phenethyloxyphenyl)-2,3,4,5-tetrahydropyridazin-3-one]",1600 nM,4.2 mg/kg,–
"CCCCOc1cc(C2C=NN(C)C(=O)C2)ccc1OC (stereo not shown) [Compound No. 23, 5-(3-butoxy-4-methoxyphenyl)-2-methyl-2,3,4,5-tetrahydropyridazin-3-one]",6300 nM,0.53 mg/kg,–
"COc1ccc(C2C=NNC(=O)C2)cc1OC1Cc2ccccc2C1 (stereo not shown) [Compound No. 9, 5-[3-(2-indanyloxy)-4-methoxyphenyl]-2,3,4,5-tetrahydropyridazin-3-one]",170 nM,–,–
"CCC(CC)COc1cc(C2C=NNC(=O)C2)ccc1OC (stereo not shown) [Compound No. 14, 5-[3-(2-ethylbutoxy)-4-methoxyphenyl]-2,3,4,5-tetrahydropyridazin-3-one]",2300 nM,–,–
"COc1ccc(C2C=NN(C)C(=O)C2)cc1OCC1(C)CC1 (stereo not shown) [Compound No. 22, 5-[4-methoxy-3-[(1-methylcyclopropyl)methyloxy]phenyl]-2-methyl-2,3,4,5-tetrahydropyridazin-3-one]",2700 nM,2.37 mg/kg,–
"COc1ccc(C2C=NN(C)C(=O)C2)cc1OCC1(c2ccccc2)CC1 (stereo not shown) [Compound No. 26, 5-[4-methoxy-3-[(1-phenylcyclopropyl)methyloxy]phenyl]-2-methyl-2,3,4,5-tetrahydropyridazin-3-one]",1400 nM,–,–
"COc1ccc(C2C=NN(c3ccccc3)C(=O)C2)cc1OC (stereo not shown) [Compound No. 2, 5-(3,4-dimethoxyphenyl)-2-phenyl-2,3,4,5-tetrahydropyridazin-3-one]",4200 nM,–,1700 nM
"COc1ccc(C2C=NNC(=O)C2)cc1OC (stereo not shown) [Compound No. 1, 5-(3,4-dimethoxyphenyl)-2,3,4,5-tetrahydropyridazin-3-one]",9300 nM,–,14000 nM
"COc1ccc(C2C=NN(C)C(=O)C2)cc1OCC(C)(C)C (stereo not shown) [Compound No. 21, 5-[3-(2,2-dimethylpropoxy)-4-methoxyphenyl]-2-methyl-2,3,4,5-tetrahydropyridazin-3-one]",3900 nM,–,–
"COc1ccc(C2C=NN(C)C(=O)C2)cc1OC1Cc2ccccc2C1 (stereo not shown) [Compound No. 17, 5-[3-(2-indanyloxy)-4-methoxyphenyl]-2-methyl-2,3,4,5-tetrahydropyridazin-3-one]",630 nM,–,–
"COc1ccc(C2C=NNC(=O)C2)cc1OCc1ccccc1 (stereo not shown) [Compound No. 7, 5-(3-benzyloxy-4-methoxyphenyl)-2,3,4,5-tetrahydropyridazin-3-one]",8700 nM,–,–
"COc1ccc(C2C=NNC(=O)C2)cc1OCC1(c2ccccc2)CC1 (stereo not shown) [Compound No. 25, 5-[4-methoxy-3-[(1-phenylcyclopropyl)methyloxy]phenyl]-2,3,4,5-tetrahydropyridazin-3-one]",750 nM,–,–
"COc1ccc(C2CNNC(=O)C2)cc1OC1CCCC1 (stereo not shown) [Compound No. 4, 5-(3-cyclopentyloxy-4-methoxyphenyl)hexahydropyridazin-3-one]",2500 nM,2.1 mg/kg,–
"COc1ccc(C2C=NN(C)C(=O)C2)cc1OC1CCCC1 (stereo not shown) [Compound No. 5, 5-(3-cyclopentyloxy-4-methoxyphenyl)-2-methyl-2,3,4,5-tetrahydropyridazin-3-one]",670 nM,–,430 nM
"COc1ccc(C2C=NN(C)C(=O)C2)cc1OCCc1ccccc1 (stereo not shown) [Compound No. 19, 5-(4-methoxy-3-phenethyloxyphenyl) -2-methyl-2,3,4,5-tetrahydropyridazin-3-one]",2700 nM,–,–
"COc1ccc(C2C=NN(Cc3ccccc3)C(=O)C2)cc1OC1CCCC1 (stereo not shown) [Compound No. 6, 2-benzyl-5-(3-cyclopentyloxy-4-methoxyphenyl)-2,3,4,5-tetrahydropyridazin-3-one]",180 nM,3.2 mg/kg,130 nM
"COc1ccc(C2C=NNC(=O)C2)cc1OCC(C)C (stereo not shown) [Compound No. 12, 5-[4-methoxy-3-(2-methylpropoxy)phenyl]-2,3,4,5-tetrahydropyridazin-3-one]",1100 nM,1.05 mg/kg,–
"CCCCOc1cc(C2C=NNC(=O)C2)ccc1OC (stereo not shown) [Compound No. 13, 5-(3-butoxy-4-methoxyphenyl)-2,3,4,5-tetrahydropyridazin-3-one]",3400 nM,1.4 mg/kg,–
"COc1ccc(C2C=NNC(=O)C2)cc1OCC(C)(C)C (stereo not shown) [Compound No. 15, 5-[3-(2,2-dimethylpropoxy)-4-methoxyphenyl]-2,3,4,5-tetrahydropyridazin-3-one]",4800 nM,–,–
"COc1ccc(C2CC(=O)NN=C2c2ccccc2)cc1OC1CCCC1 (stereo not shown) [Compound No. 28, 5-(3-cyclopentyloxy-4-methoxyphenyl)-6-phenyl-2,3,4,5-tetrahydropyridazin-3-one]",19000 nM,–,–
"COc1ccc(C2C=NN(C)C(=O)C2)cc1OCC1CC1 (stereo not shown) [Compound No. 18, 5-(3-cyclopropylmethyloxy-4-methoxyphenyl) -2-methyl-2,3,4,5-tetrahydropyridazin-3-one]",4600 nM,0.12 mg/kg,–
"COc1ccc(C2C=NN(C)C(=O)C2)cc1OCC(C)C (stereo not shown) [Compound No. 20, 5-[4-methoxy-3-(2-methylpropoxy)phenyl]-2-methyl-2,3,4,5-tetrahydropyridazin-3-one]",2300 nM,0.97 mg/kg,–
"CCC(CC)COc1cc(C2C=NN(C)C(=O)C2)ccc1OC (stereo not shown) [Compound No. 24, 5-[4-methoxy-3-(2-ethylbutoxy)phenyl]-2-methyl-2,3,4,5-tetrahydropyridazin-3-one]",340 nM,–,–
"COc1ccc(C2CC(=O)NN=C2C)cc1OC (stereo not shown) [compound 27, 5-(3,4-dimethoxyphenyl)-6-methyl-2,3,4 5-tetrahydropyridazin-3-one]",18000 nM,–,15000 nM
"COc1ccc(C2C=NNC(=O)C2)cc1OC1CCCC1 (stereo not shown) [Compound No. 3, 5-(3-cyclopentyloxy-4-methoxyphenyl)-2,3,4,5-tetrahydropyridazin-3-one]",420 nM,0.4 mg/kg,30 nM
"COc1ccc(C2C=NNC(=O)C2)cc1OCCCCCc1ccccc1 (stereo not shown) [Compound No. 16, 5-[4-methoxy-3-(5-phenylpentyloxy)phenyl]-2,3,4,5-tetrahydropyridazin-3-one]",330 nM,–,–
"COc1ccc(C2C=NNC(=O)C2)cc1OCC1CC1 (stereo not shown) [Compound No. 10, 5-(3-cyclopropylmethyloxy-4-methoxyphenyl)-2,3,4,5-tetrahydropyridazin-3-one]",1600 nM,0.074 mg/kg,–
"COc1ccc(C2C=NNC(=O)C2)cc1OCC1(C)CC1 (stereo not shown) [Compound No. 11, 5-[4-methoxy-3-[(1-methylcyclopropyl)methyloxy]phenyl]2,3,4,5-tetrahydropyridazin-3-one]",1200 nM,0.82 mg/kg,–
